We go through four compounds from patent publication US11291669B2, “Compositions comprising phosphoinositide 3-kinase inhibitors and a second antiproliferative agent” (Karus Therapeutics Limited, priority 2015, dated 2022).

Where two headings read alike, the source gives them in different places.

Data set [1] can be described thus: Rodent pharmacokinetics, male CD1 mouse, plasma PK. Type of data set: in vivo. Particulars: PO 10 mg/kg vs IV 5 mg/kg, read-out: F (oral bioavailability). On the procedure: Formulation: 10% DMSO, 90% Saline Dosing: 10 mg/kg P.O. and 5 mg/kg I.V. Plasma PK Summary: […]
Data set [2] can be described thus: Rodent pharmacokinetics, male Balb/c mouse, plasma PK. Particulars: for Oral Bioavailability (F): summary table, PO 10 mg/kg. Type of data set: in vivo. On the procedure: Animals in Group 1 were administered intravenously with Example B solution formulation in 20% Propylene Glycol, 50% of PEG 400 and 30% of (20% HPβCD in water) via tail vein at a dose of 3 mg/kg.
Animals in Group 2 were administered with oral solution formulation of Example B in 20% Propylene Glycol, 50% of PEG 400 and 30% of (20% HPβCD in water) at a dose of 10 mg/kg;
Dosing: 10 mg/kg P.O. and 3 mg/kg I.V.
Animals in Group 1 were administered intravenously with Example G solution formulation in 5% NMP, 5% solutol HS-15 in 90% HPIβCD solution (20% HPβCD in RO water) at 3 mg/kg dose.
Animals in Group 2 were administered orally with 10 mg/kg solution formulation of Example G in 5% NMP, 5% solutol HS-15 in 90% HPβCD solution (20% HPβCD in RO water)

The bioavailability is the share of a dose that reaches the circulation, judged against a reference dose that is usually intravenous. In the case of `c1cc(-c2nc(N3CCOCC3)c3oc4ncc(CN5C[C@@H]6C[C@H]5CO6)cc4c3n2)c2cc[nH]c2c1` [Example A, 4-(1H-Indol-4-yl)-6-(morpholin-4-yl)-12-[(1S,4S)-2-oxa-5-azabicyclo[2.2.1]heptan-5-ylmethyl]-8-oxa-3,5,10-triazatricyclo[7.4.0.0^2,7]trideca-1(13),2(7),3,5,9,11-hexaene], in data set [1] (mesylate salt), the bioavailability turned out to be 73.8%.

On to `c1cc(-c2nc(N3CCOCC3)c3oc4ncc(CN5CCC6(CC5)COC6)cc4c3n2)c2cc[nH]c2c1` [Example B, 4-(1H-Indol-4-yl)-6-(morpholin-4-yl)-12-{2-oxa-7-azaspiro[3.5]nonan-7-ylmethyl}-8-oxa-3,5,10-triazatricyclo[7.4.0.0^2,7]trideca-1(13),2(7),3,5,9,11-hexaene], for which, in data set [2] (IV, 3 mg/kg, mesylate salt), the Clearance is 33.06 mL/min/kg. Further, the “Oral Bioavailability (F)” value in data set [2] is 74.

Regarding `c1cc(-c2nc(N3CCOCC3)c3oc4ncc(CN5CCC56COC6)cc4c3n2)c2cc[nH]c2c1` [Example G, 4-(1H-indol-4-yl)-6-(morpholin-4-yl)-12-{6-oxa-1-azaspiro[3.3]heptan-1-ylmethyl}-8-oxa-3,5,10-triazatricyclo[7.4.0.0^2,7]trideca-1(13), 2(7), 3,5,9,11-hexaene], in data set [2], the “Oral Bioavailability (F)” value was 30.

For the compound `c1cc(-c2nc(N3CCOCC3)c3oc4ncc(CN5CCCCC5)cc4c3n2)c2cc[nH]c2c1` [Example I in WO2011/021038, reference compound], the bioavailability in data set [1] (HCl salt) worked out at 29.6%.
